From publication PMC10787790, “Isatin-tethered halogen-containing acylhydrazone derivatives as monoamine oxidase inhibitor with neuroprotective effect” (Scientific Reports, 2024)

Legend:
[1] = system: TNF-α; assay: TNF-α expression in LPS-induced SH-SY5Y cells; format: cell-based, human
[2] = Parallel artificial membrane permeability assay (PAMPA), BBB; format: in vitro ADME
Description: The blood–brain barrier (BBB) permeation abilities of the four lead molecules were analyzed using the PAMPA method[44],[45]. The detailed procedure is explained in the Supplementary Data.
Using a microtiter plate with 96 wells and a Millipore filter plate with 96 wells (ipvh, 125 μm thick filter, 0.45 μm pore), which was then saturated with 0.1 mL of n-dodecane, a "sandwich" structure was created in PAMPA. Stock solutions of drug samples in DMSO were created at a 10 mM concentration. The stock solution was diluted in buffer at pH 7.4 before being added to a 96-well filter plate in order to achieve a final sample concentration (0.01, 0.1, and 1 mM) and keep the DMSO concentration at 1% (v/v). The final dilutions were divided into 270 μL for the donor wells and 200 μL of pH 7.4 buffer for the acceptor well. The donor plate was placed on the top of the acceptor filter plate to form a sandwich (comprising of a synthetic lipid membrane in the center, an aqueous receiver on […], and an aqueous donor carrying an analyte on the bottom.). The test substance diffuses from the donor well across the lipid membrane and into the acceptor well. The sandwich is said to have been intact when the penetration occurred. The drug concentration in the reference, donor, and receiver wells was measured using UV spectroscopy. The rate of penetration is calculated using the following expression.
Log Pe = -ln [1-CA /Equilibrium]/A× (1/VD + 1/VA) × t

[3] = system: CAT; assay: Catalase (CAT) activity in LPS-induced SH-SY5Y cells; format: cell-based, human; conditions: 10 µM/mL
Description: (§1) Subcultures were performed every two days.
CAT activity was determined according to Aebi[50]. A human CAT ELISA kit was purchased commercially (KrishGen Biosystems). Following treatment, the adherent cells were scraped off, suspended in cold PBS, sonicated, and placed on ice. The medium was then removed from each well. The 3 mL CAT assay combination comprised of extract (0.05 mL), phosphate buffer (1.5 mL, 100 mM buffer, pH 7.0), H2O2 (0.5 mL), and distilled water (0.95 mL). The absorbance decreased at 450 nm. CAT activity was reported in terms of ng/mL of H2O2 oxidized per min per gram[46]–[49].

[4] = biological target: T1, MAO-B (Homo sapiens, UniProt P27338); assay: Enzyme kinetics, Lineweaver-Burk and secondary plots, MAO-B; format: biochemical; design: purchased Sigma-Aldrich
T1 sequence (P27338 1-520): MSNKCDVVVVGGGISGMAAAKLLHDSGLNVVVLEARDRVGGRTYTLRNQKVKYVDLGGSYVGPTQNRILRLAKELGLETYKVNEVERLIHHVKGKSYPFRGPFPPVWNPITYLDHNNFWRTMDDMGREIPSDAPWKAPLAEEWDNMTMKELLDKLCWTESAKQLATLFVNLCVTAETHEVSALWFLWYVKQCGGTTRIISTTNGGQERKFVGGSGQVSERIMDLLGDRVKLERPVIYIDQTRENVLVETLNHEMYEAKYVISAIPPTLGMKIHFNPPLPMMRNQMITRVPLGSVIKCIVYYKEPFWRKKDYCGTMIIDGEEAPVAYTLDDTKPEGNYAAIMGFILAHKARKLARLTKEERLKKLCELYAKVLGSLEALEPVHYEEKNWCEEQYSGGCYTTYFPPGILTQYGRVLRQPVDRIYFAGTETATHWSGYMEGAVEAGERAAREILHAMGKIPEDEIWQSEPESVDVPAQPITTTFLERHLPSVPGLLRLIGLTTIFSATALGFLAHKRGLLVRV
Description: Enzyme inhibition patterns and Ki values were determined by comparing Lineweaver–Burk (LB) plots and their secondary plots, respectively[40].

[5] = system: SOD; assay: Superoxide dismutase (SOD) activity in LPS-induced SH-SY5Y cells; format: cell-based, human; conditions: 10 µM/mL
Description: Using a superoxide dismutase assay kit (KrishGen Biosystems, India), which measures the concentration of formazan crystals using a colorimetric assay, SOD activity was determined. In this test, a tetrazolium salt was used to detect the superoxide radicals produced by xanthine oxidase and hypoxanthine. After treatment, the medium was removed, centrifuged at 2000 rpm for 5 min at room temperature, and placed on ice. A diluted radical detector and lysed cell supernatant or a standard were applied to each well of a 96-well plate to evaluate SOD activity using an ELISA kit, according to the manufacturer’s instructions. The absorbance of the wells was then determined after 5 min at a wavelength of 450 nm using a microplate reader (Safire2, Tecan Group Ltd., Maennedorf, Switzerland).

[6] = system: SH-SY5Y cells; assay: MTT cytotoxicity assay; format: cell-based, human; conditions: 24 h
Description: as §1
The cells were grown in 96-well plates with 20,000 cells per well. Different compound concentrations were applied to the cells, and the treated cells were then left to incubate for 24 h. After applying 50 µL of MTT (0.5 mg/mL) to each well, the plates were incubated for 3 h, then 100 µL of DMSO was added to dissolve the purple formazan crystal, and an absorbance was measured at 570 nm using a microplate reader (ELX-800, BioTek, CA, USA). Compounds' growth inhibitory concentration (IC50) values were computed.

[7] = biological target: T1, MAO-B; assay: MAO-B inhibition assay (continuous, benzylamine); conditions: for SI (selectivity index): (IC50 of MAO-A)/(IC50 of MAO-B), MAO-B compared to MAO-A; for remaining activity at 10 µM: read-out: Residual activity at 10 µM (%) MAO-B
Description: (§2) MAO-A and MAO-B activities were determined using 0.06 mM kynuramine and 0.3 mM benzylamine, respectively[39]. […] Concentrations of the substrates used were around 2.0 times of their Km values for the enzyme assay. The absorbance was measured using the continuous assay method described previously[40].
(§3) The selectivity index (SI) values of the compounds were calculated as follows: (IC50 of MAO-A)/(IC50 of MAO-B)[42].

[8] = biological target: T1, MAO-B; assay: Reversibility study by dialysis, MAO-B
Description: Reversibility test was performed by using Dialyzer DiaEasy™ (6–8 kDa, BioVision, St. Grove, MA, USA).

[9] = system: ROS; assay: ROS assay (DCF) in LPS-treated SH-SY5Y cells; format: cell-based, human
Description: as §1
The OxiSelect Intracellular ROS Assay Kit (Cell Biolabs Inc., San Diego, CA, USA) was used to quantify the levels of the fluorescent probe 20,70-dichlorodihydrofluorescin diacetate (DCFH-DA).

[10] = system: NF-kB; assay: NF-kB expression in LPS-induced SH-SY5Y cells; conditions: LPS 1 µg/mL 2 h, compound 24 h, SH-SY5Y
[11] = biological target: T2, MAO-A (Homo sapiens, UniProt P21397); assay: MAO-A inhibition assay (continuous, kynuramine); conditions: for remaining activity at 10 µM: read-out: Residual activity at 10 µM (%) MAO-A
T2 sequence (P21397 1-527): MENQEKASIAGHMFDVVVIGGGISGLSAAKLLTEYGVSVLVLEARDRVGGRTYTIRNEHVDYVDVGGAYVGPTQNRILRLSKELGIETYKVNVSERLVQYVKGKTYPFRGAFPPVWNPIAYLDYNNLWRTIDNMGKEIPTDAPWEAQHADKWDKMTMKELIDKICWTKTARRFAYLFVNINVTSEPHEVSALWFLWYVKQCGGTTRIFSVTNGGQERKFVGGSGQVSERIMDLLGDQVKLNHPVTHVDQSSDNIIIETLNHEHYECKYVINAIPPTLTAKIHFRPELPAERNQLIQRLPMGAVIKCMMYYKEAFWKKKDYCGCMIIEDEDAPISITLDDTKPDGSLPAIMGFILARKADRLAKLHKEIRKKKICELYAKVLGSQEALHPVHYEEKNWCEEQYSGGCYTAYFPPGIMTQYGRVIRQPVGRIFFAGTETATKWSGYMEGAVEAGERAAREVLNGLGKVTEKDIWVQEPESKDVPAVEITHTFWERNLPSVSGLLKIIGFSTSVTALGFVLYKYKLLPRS
Description: as §2, §3

[12] = system: IL-6; assay: IL-6 expression in LPS-induced SH-SY5Y cells; format: cell-based, human
[13] = system: GPx; assay: Glutathione peroxidase (GPx) activity in LPS-induced SH-SY5Y cells; format: cell-based, human; conditions: 10 µM/mL
Description: A GPx assay kit (KrishGen Biosystems) was used to evaluate the GPx activity. The kit uses a colorimetric assay to determine the quantity of GPx. Glutathione reductase (GR) mediates GPx activity Oxidized glutathione (GSSG) is produced via hydroperoxide reduction by GPx. This glutathione is recycled back to its reduced state by GR and NADPH. The NADPH to NADP + oxidation was accompanied by a decrease in absorbance at 450 nm (A450). When GPx activity was rate-limiting, the rate of decline in A450 was directly correlated with GPx activity. Following treatment, adherent cells were removed from the wells, suspended in cold PBS, sonicated, and frozen. In accordance with the ELISA kit’s instructions, the lysed cell supernatant, or standard, was applied to all 96 wells of a plate together with a diluted radical detector to assay the activity of GPx. A microplate reader was used to measure the absorbance of the wells after 5 min[46]–[49]. Results were obtained in ng/mL.

[14] = system: MAO-A; conditions: halogenated pyrazoline, no reference given; cited from earlier work
[15] = LPS 1 µg/mL 2 h, compound 24 h, SH-SY5Y

**Q.** What does the source list for `O=C1Nc2ccccc2/C1=N/NC(=O)c1ccc(Br)cc1` [IS7]?
**A.** TNF-alpha level vs LPS-treated group [1, 15]: significantly (p < 0.0001) reduced; TNF-alpha level compared to IS13 and IS15 ([1]; LPS-treated cell lines): significantly decreased; CNS/BBB permeability in words [2]: high permeability and CNS bioavailability; Prediction (CNS permeation class) [2]: CNS+ (Pe (10^−6 cm/s) > 4.00: CNS + (high permeation)); Experimental Pe ([2]; pH 7.4): > 4 ×10⁻⁶ cm/s; Papp ([2]; pH 7.4, read-out: Experimental Pe): 5.02 ± 0.19 ×10⁻⁶ cm/s; CAT (cellular anti-oxidant enzyme) effect [3]: enhancing the enzyme activity; Type of MAO-B inhibition ([4]; LB plot): competitive; Ki ([4]; secondary plot of LB slopes vs inhibitor concentration): 0.044 ± 0.002 µM; SOD (cellular anti-oxidant enzyme) effect [5]: enhancing the enzyme activity; Cell viability at 100 μM ([6]; 100 μM): remarkably decreased cell viability; IC50 ([6]; Homo sapiens): 97.2 µM; IC50 [7]: 0.082 ± 0.01 µM; SI (selectivity index) [7]: 233.85; remaining activity at 10 µM [7]: 3.2 ± 0.77%; Fold higher MAO-B inhibition than IS5 ([7]; relative to basic compound IS5): 50.4 ×; MAO-B relative activity, dialyzed (AD) ([8]; […] IC50, 30 min pre-incubation, dialyzed): 72.89%; MAO-B relative activity, undialyzed (AU) ([8]; […] IC50, 30 min pre-incubation, undialyzed): 28.65%; Reversibility of MAO-B inhibition ([8]; dialysis): reversible-type inhibitors; DCF intensity decrease at 10 µM ([9]; 10 µM/mL (10 µM), vs LPS-induced cells): effective DCF intensity decrease; DCF expression (ROS) vs cells treated with LPS alone ([9]; LPS-induced SH-SY5Y): significantly inhibited (p < 0.0001); NF-kB level vs LPS-treated group [10]: significantly (p < 0.0001) reduced; IC50 [11]: 19.2 ± 5.96 µM; remaining activity at 10 µM [11]: 50.8 ± 7.29%; IL-6 level vs LPS-treated group [12, 15]: significantly (p < 0.0001) reduced; IL-6 level compared to IS13 and IS15 ([12]; LPS-treated cell lines): significantly decreased; GPx (cellular anti-oxidant enzyme) effect [13]: enhancing the enzyme activity

**Q.** With `C#CCN(C)[C@H](C)Cc1ccccc1` [Selegiline, reference compound] as the compound, how does the “Prediction (CNS permeation class)” value [2] read?
**A.** CNS+ (Pe (10^−6 cm/s) > 4.00: CNS + (high permeation))

**Q.** For `O=C1Nc2ccc(Br)cc2/C1=N/NC(=O)c1ccc(Cl)cc1` [IS2], which IC50 [7] is on record?
**A.** 0.269 ± 0.004 µM

**Q.** What about the “SI (selectivity index)” value [7] of the same compound?
**A.** 34.03

**Q.** And the remaining activity at 10 µM [7]?
**A.** 1.18 ± 2.04%

**Q.** And the IC50 [11]?
**A.** 9.16 ± 0.324 µM

**Q.** What about the remaining activity at 10 µM [11] of the same compound?
**A.** 46.9 ± 2.73%

**Q.** Which IC50 [7] does the source give for `O=C1Nc2ccc(F)cc2/C1=N/NC(=O)c1ccc(Br)cc1` [IS11] here?
**A.** 10.6 ± 0.256 µM

**Q.** What about the “SI (selectivity index)” value [7] of the same compound?
**A.** 1.30

**Q.** And the remaining activity at 10 µM [7]?
**A.** 53.2 ± 2.6%

**Q.** What about the IC50 [11] of the same compound?
**A.** 13.7 ± 0.396 µM

**Q.** What about the remaining activity at 10 µM [11] of the same compound?
**A.** 43.56 ± 0.42%

**Q.** Which results are given for `O=C1Nc2ccc(Cl)cc2/C1=N/NC(=O)c1ccc(F)cc1` [IS16]?
**A.** IC50 [7]: 3.85 ± 0.392 µM; SI (selectivity index) [7]: 2.20; remaining activity at 10 µM [7]: 26.1 ± 4.39%; IC50 [11]: 8.45 ± 0.395 µM; remaining activity at 10 µM [11]: 43.7 ± 1.65%

**Q.** With `O=C1Nc2ccc(F)cc2/C1=N/NC(=O)c1ccc(F)cc1` [IS12] as the compound, how does the IC50 [7] read?
**A.** 7.1 ± 0.956 µM

**Q.** What about the “SI (selectivity index)” value [7] of the same compound?
**A.** 0.60

**Q.** What about the remaining activity at 10 µM [7] of the same compound?
**A.** 44.3 ± 4.48%

**Q.** What about the IC50 [11] of the same compound?
**A.** 4.29 ± 0.552 µM

**Q.** What about the remaining activity at 10 µM [11] of the same compound?
**A.** 36.6 ± 1.6%

**Q.** Which IC50 [7] does the source give for `O=C1Nc2ccccc2/C1=N/NC(=O)c1ccc(F)cc1` [IS8] here?
**A.** 25.5 ± 2.03 µM

**Q.** What about the remaining activity at 10 µM [7] of the same compound?
**A.** 67.4 ± 7.8%

**Q.** What about the IC50 [11] of the same compound?
**A.** 35 µM

**Q.** What about the remaining activity at 10 µM [11] of the same compound?
**A.** 69.7 ± 3.22%

**Q.** What does the source list for `O=C1Nc2ccc(F)cc2/C1=N/NC(=O)c1ccccc1` [IS9]?
**A.** IC50 [7]: 9.09 ± 1.28 µM; remaining activity at 10 µM [7]: 45.6 ± 6.28%; IC50 [11]: > 40 µM; remaining activity at 10 µM [11]: 67.4 ± 1%

**Q.** With `CCOc1ccc(C2=NNC(c3ccc(Br)cc3)C2)cc1` (stereo not drawn) [EH8] as the compound, how does the IC50 [14] read?
**A.** 4.31 µM
